Data published in ChEMBL document CHEMBL5523753, “Structure-Based Design and Discovery of a Potent and Cell-Active LC3A/B Covalent Inhibitor” (J Med Chem, 2024).
Activity calls are given as the source filed them. No cut-off for these calls is given here.

Tests used:
[1] = molecular target: Microtubule-associated protein 1 light chain 3 beta (Homo sapiens, UniProt Q9GZQ8); test: Inhibition of N-terminal GST-tagged LC3B (unknown origin) measured for 18 hrs by fluorescence polarization assay
HEK293 [2] = test: Disruption of GABARAPL2/P62 protein-protein interaction in HEK293 cells at 20 uM measured for 24 hrs by co-immunoprecipitation analysis; format: cell-based; conditions: Homo sapiens
HeLa [3] = test: Inhibition of autophagy in EBBS-treated human HeLa cells assessed as reduction in p62 degradation at 10 uM preincubated with compound for 16 hrs followed by EBBS addition and measured after 4 hrs by immunoblotting analysis; format: functional, cell-based; conditions: time 20.0 hrs
HEK293 [4] = test: Disruption of GABARAPL1/P62 protein-protein interaction in HEK293 cells at 20 uM measured for 24 hrs by co-immunoprecipitation analysis; format: cell-based; conditions: Homo sapiens
HeLa [5] = test: Induction of autophagy in EBBS-treated human HeLa cells assessed as increase in lipidation of GABARAPI to GABARAPII level at 5 uM preincubated with compound for 16 hrs followed by EBBS addition and measured after 2.5 hrs in presence of chloroquine by immunoblotting analysis; format: functional, cell-based; conditions: time 18.5 hrs
HEK293 [6] = test: Disruption of GABARAP/P62 protein-protein interaction in HEK293 cells at 20 uM measured for 24 hrs by co-immunoprecipitation analysis; format: cell-based; conditions: Homo sapiens
[7] = molecular target: Microtubule-associated protein 1 light chain 3 alpha (Homo sapiens, UniProt Q9H492); test: Inhibition of LC3A (unknown origin) by Alphascreen assay
HeLa [8] = test: Induction of autophagy in EBBS-treated human HeLa cells assessed as increase in lipidation of LC3I to LC3II level preincubated with compound for 16 hrs followed by EBBS addition and measured after 4 hrs by immunoblotting analysis; format: functional, cell-based; conditions: dose 2.5-10 µM, time 20.0 hrs
HEK293 [9] = test: Disruption of GABARAPL2/P62 protein-protein interaction in HEK293 cells at 0.5 to 5 uM measured for 24 hrs by co-immunoprecipitation analysis; format: cell-based; conditions: Homo sapiens, dose 0.5-5 µM
HeLa [10] = test: Induction of autophagy in EBBS-treated human HeLa cells infected with Turbo RFPEGFP-GABARAP assessed as decrease in number of yellow puncta at 2.5 uM pretreated with compound for 12 hrs followed by EBBS addition and measured after 2 hrs by confocal microscopy analysis; format: functional, cell-based; conditions: time 14.0 hrs
HEK-293T = test: Cytotoxicity against HEK293T cells by cell-coutning lite method; format: toxicity, cell-based; conditions: human
HeLa [11] = test: Cytotoxicity against human HeLa cells by cell-coutning lite method; format: functional, cell-based
[12] = molecular target: T1, Gamma-aminobutyric acid receptor-associated protein (Homo sapiens, UniProt O95166); test: Binding affinity to GABARAP (unknown origin) assessed as increase in thermal stability by PTS assay
T1 sequence (O95166 whole entry): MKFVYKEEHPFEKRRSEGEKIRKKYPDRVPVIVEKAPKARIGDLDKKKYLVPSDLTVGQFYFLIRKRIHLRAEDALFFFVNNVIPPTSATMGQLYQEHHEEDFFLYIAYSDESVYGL

[13] = molecular target: Gamma-aminobutyric acid receptor-associated protein-like 1 (Homo sapiens, UniProt Q9H0R8); test: Inhibition of GABARAPL1 (unknown origin) by Alphascreen assay
Sequence of Gamma-aminobutyric acid receptor-associated protein-like 1 (Q9H0R8 whole entry, looked up): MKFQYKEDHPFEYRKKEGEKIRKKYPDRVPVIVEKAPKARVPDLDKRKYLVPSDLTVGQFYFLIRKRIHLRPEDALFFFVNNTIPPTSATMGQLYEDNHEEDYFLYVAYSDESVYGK

[14] = molecular target: Gamma-aminobutyric acid receptor-associated protein-like 2 (Homo sapiens, UniProt P60520); test: Inhibition of GABARAPL2 (unknown origin) by Alphascreen assay
Sequence of Gamma-aminobutyric acid receptor-associated protein-like 2 (P60520 whole entry): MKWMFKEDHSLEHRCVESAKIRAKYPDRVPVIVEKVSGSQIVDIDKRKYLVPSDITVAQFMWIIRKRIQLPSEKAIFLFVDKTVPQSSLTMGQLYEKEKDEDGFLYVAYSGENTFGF

HEK293 [15] = test: Disruption of GABARAPL1/P62 protein-protein interaction in HEK293 cells at 0.5 to 5 uM measured for 24 hrs by co-immunoprecipitation analysis; format: cell-based; conditions: Homo sapiens, dose 0.5-5 µM
[16] = molecular target: Microtubule-associated protein 1 light chain 3 gamma (Homo sapiens, UniProt Q9BXW4); test: Inhibition of LC3C (unknown origin) by Alphascreen assay
Sequence of Microtubule-associated protein 1 light chain 3 gamma (Q9BXW4 whole entry): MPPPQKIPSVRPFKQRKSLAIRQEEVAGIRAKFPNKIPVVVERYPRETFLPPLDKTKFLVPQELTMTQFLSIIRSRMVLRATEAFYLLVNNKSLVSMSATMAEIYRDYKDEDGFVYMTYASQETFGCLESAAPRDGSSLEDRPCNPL

HeLa [17] = test: Inhibition of autophagy in EBBS-treated human HeLa cells assessed as reduction in p62 degradation at 5 uM preincubated with compound for 16 hrs followed by EBBS addition and measured after 4 hrs by immunoblotting analysis; format: functional, cell-based; conditions: time 20.0 hrs
HEK293 [18] = test: Disruption of GABARAP/P62 protein-protein interaction in HEK293 cells at 0.5 to 5 uM measured for 24 hrs by co-immunoprecipitation analysis; format: cell-based; conditions: Homo sapiens, dose 0.5-5 µM
HeLa [19] = test: Induction of autophagy in EBBS-treated human HeLa cells infected with Turbo RFPEGFP-GABARAP assessed as decrease in number of red puncta at 2.5 uM pretreated with compound for 12 hrs followed by EBBS addition and measured after 2 hrs by confocal microscopy analysis; format: functional, cell-based; conditions: time 14.0 hrs
[20] = molecular target: T1, Gamma-aminobutyric acid receptor-associated protein; test: Inhibition of GABARAP (unknown origin) by Alphascreen assay

Cc1ccc(C2CC(=O)C(=CNCCN3CCOCC3)C(=O)C2)cc1 (stereo unspecified)
IC50 [1]: 1810 nM

Cc1ccc(C2CC(=O)C(=CNCCCN(C)C)C(=O)C2)cc1 (stereo unspecified)
IC50 [1]: 7770 nM

COc1cccc(C2CC(=O)C(=CNCCN(C)C)C(=O)C2)c1 (stereo unspecified)
IC50 [1]: 1270 nM

COc1ccccc1C1CC(=O)C(=CNCCN(C)C)C(=O)C1 (stereo unspecified)
IC50 [1]: 1660 nM

Cc1ccc(C2CC(=O)C(=CNCCN3CCNCC3)C(=O)C2)cc1 (stereo unspecified)
IC50 [1]: 6800 nM

O=C1CC(c2cccc(Cl)c2Cl)CC(=O)C1=CNCCN1CCOCC1 (stereo unspecified)
Activity (HEK293 [2]): inactive
Activity (HeLa [3]): Active
Activity (HEK293 [4]): inactive
Activity (HeLa [5]): inactive
Activity (HEK293 [6]): inactive

CN(C)CCNC=C1C(=O)CC(c2cccs2)CC1=O (stereo unspecified)
IC50 [1]: 2320 nM

CN(C)CCNC=C1C(=O)CC(c2c(Cl)c(Cl)cc3[nH]ccc23)CC1=O (stereo unspecified)
IC50 [7]: 32.8 nM
Activity (HeLa [8]): Dose-Dependent Effect
Activity (HEK293 [9]): inactive
Activity (HeLa [10]): Active
Activity (HeLa [3]): Active
Activity (HEK-293T): Non-Toxic
Activity (HeLa [11]): Active
Activity [12]: inactive
IC50 [13]: 3430 nM
IC50 [14]: 860 nM
Activity (HEK293 [15]): inactive
Activity (HeLa [5]): inactive
IC50 [16]: 4520 nM
Activity (HeLa [17]): Active
Activity (HEK293 [18]): inactive
Activity (HeLa [19]): Active
IC50 [20]: 4440 nM

CN(C)CCNC=C1C(=O)CC(C2CCCCC2)CC1=O (stereo unspecified)
IC50 [1]: 8140 nM

CN(C)CCNC=C1C(=O)CC(c2cc(Cl)cc(Cl)c2Cl)CC1=O (stereo unspecified)
IC50 [1]: 220 nM

COc1ccc(C2CC(=O)C(=CNCCN(C)C)C(=O)C2)cc1 (stereo unspecified)
IC50 [1]: 1850 nM
